Measurements as given in the NIST ThermoML archive (doi:10.1016/j.jct.2009.01.008).

Assay: xn = mol fraction of the nth substance listed
Conditions: 101 kPa, Liquid, Linear variable-path acoustic interferometer

COC(C)(C)C [2-methoxy-2-methylpropane] + CC(C)CC(C)(C)C
speed of sound [m/s]
Conditions | 298.15 K | 308.15 K | 318.15 K | 328.15 K
x1 = 0.05551 | 1079.2 | 1037.5 | – | –
x1 = 0.08857 | 1077.1 | – | 993.7 | 952.7
x1 = 0.1305 | 1074.8 | 1032.8 | 991.2 | –
x1 = 0.1971 | 1071 | 1028.7 | 986.9 | 945.5
x1 = 0.2599 | 1067.4 | 1024.9 | 983 | 941.5
x1 = 0.3284 | 1063.8 | 1021 | 978.9 | –
x1 = 0.3315 | – | – | – | 936.4
x1 = 0.4078 | 1059.5 | 1016.4 | 973.8 | –
x1 = 0.4756 | 1056.1 | 1012.7 | – | –
x1 = 0.5629 | 1052 | 1008.2 | 964.9 | 922.2
x1 = 0.6184 | 1049.5 | – | – | –
x1 = 0.6831 | 1046.7 | 1002.5 | 958.7 | 915.2
x1 = 0.7456 | 1044.1 | 995.5 | 955.6 | –
x1 = 0.7644 | 1043.4 | – | – | –
x1 = 0.8143 | 1041.7 | – | – | –
x1 = 0.8155 | 1041.5 | 996.6 | 952.4 | –
x1 = 0.8675 | 1039.8 | 994.7 | 950 | –
x1 = 0.9376 | 1037.8 | 992.5 | 947.4 | –
x1 = 1 | 1036.4 | 990.8 | 945.3 | –
